Test results reported in patent US12545639B2, “3-substituted phenylamidine compounds, preparation and use thereof” (PI INDUSTRIES LTD., priority 2019, dated 2026).

Legend:
Pyricularia oryzae = experiment: microbe, parasite or virus in culture; type: cell-based; conditions: 168 h, read-out: control compared to the untreated check (radial growth)
Alternaria solani = Alternaria solani (early blight of tomato/potato) in vitro test, radial growth on potato dextrose agar; type: cell-based; conditions: 168 h, 300 ppm in potato dextrose agar, 25° C., 60% relative humidity, seven days, read-out: control compared to the untreated check (radial growth)
[1] = tested on: Septoria lycopersici/Corynespora cassicola (CORYCA); experiment: Septoria lycopersici/Corynespora cassicola (CORYCA) (leaf spot of tomato) in vitro test, radial growth on potato dextrose agar; type: cell-based; conditions: 168 h, 300 ppm in potato dextrose agar, 25° C., 70% relative humidity, seven days, read-out: control compared to the untreated check (radial growth)
Botrytis cinerea = Botrytis cinerea (gray mold) in vitro test, radial growth on potato dextrose agar; type: cell-based; conditions: 168 h, 300 ppm in potato dextrose agar, 22° C., 90% relative humidity, seven days, read-out: control compared to the untreated check (radial growth)
Phakopsora pachyrhizi = Phakopsora pachyrhizi test in soybean, preventive, in vivo on plants; conditions: in Glycine max, read-out: Efficacy (% control), disease severity compared to the untreated check
Rhizoctonia solani = Rhizoctonia solani (rice sheath blight/potato black scurf) in vitro test, radial growth on potato dextrose agar; type: cell-based; conditions: 168 h, 300 ppm in potato dextrose agar, 25° C., 60% relative humidity, seven days, read-out: control compared to the untreated check (radial growth)

CCN(C)C=Nc1cc(C)cc(N(C)c2ccccc2)c1Cl [Compound 10, N′-(2-chloro-5-methyl-3-(methyl(phenyl)amino)phenyl)-N-ethyl-N-methylformimidamide]
≥ 70%: inhibition of growth at 300 ppm (Pyricularia oryzae) | inhibition of growth at 300 ppm (Alternaria solani) | inhibition of growth at 300 ppm [1] | inhibition of growth at 300 ppm (Botrytis cinerea)

CCN(C)C=Nc1cc(F)cc(Nc2cccc(OC)c2)c1C [Compound 30, N-ethyl-N′-(5-fluoro-3-((3-methoxyphenyl)amino)-2-methylphenyl)-N-methylformimidamide]
≥ 70%: inhibition of growth at 300 ppm (Pyricularia oryzae) | pest or weed control at 500 ppm (Phakopsora pachyrhizi) | inhibition of growth at 300 ppm (Alternaria solani) | inhibition of growth at 300 ppm (Rhizoctonia solani) | inhibition of growth at 300 ppm [1]

CCN(C)C=Nc1cc(OC)cc(Nc2cccc(C(F)(F)F)n2)c1C [Compound 272, N-ethyl-N′-(5-methoxy-2-methyl-3-((6-(trifluoromethyl)pyridin-2-yl)amino)phenyl)-N-methylformimidamide]
≥ 70%: inhibition of growth at 300 ppm (Pyricularia oryzae) | inhibition of growth at 300 ppm (Alternaria solani) | inhibition of growth at 300 ppm [1]

CCN(C)C=Nc1cc(Cl)cc(Cc2ccc(F)c(Cl)c2)c1C [Compound 130, N′-(5-chloro-3-(3-chloro-4-fluorobenzyl)-2-methylphenyl)-N-ethyl-N-methylformimidamide]
≥ 70%: inhibition of growth at 300 ppm (Pyricularia oryzae) | pest or weed control at 500 ppm (Phakopsora pachyrhizi) | inhibition of growth at 300 ppm (Alternaria solani) | inhibition of growth at 300 ppm (Rhizoctonia solani) | inhibition of growth at 300 ppm [1]

CCN(C)C=Nc1cc(F)cc(Nc2c(C)cccc2F)c1C [Compound 121, N-ethyl-N′-(5-fluoro-3-((2-fluoro-6-methylphenyl)amino)-2-methylphenyl)-N-methylformimidamide]
≥ 70%: inhibition of growth at 300 ppm (Pyricularia oryzae) | pest or weed control at 500 ppm (Phakopsora pachyrhizi) | inhibition of growth at 300 ppm (Alternaria solani) | inhibition of growth at 300 ppm [1]

CCN(C)C=Nc1cc(F)cc(Cc2cc(F)ccc2Cl)c1C [Compound 229, N′-(3-(2-chloro-5-fluorobenzyl)-5-fluoro-2-methylphenyl)-N-ethyl-N-methylformimidamide]
≥ 70%: inhibition of growth at 300 ppm (Pyricularia oryzae) | pest or weed control at 500 ppm (Phakopsora pachyrhizi) | inhibition of growth at 300 ppm (Alternaria solani) | inhibition of growth at 300 ppm (Rhizoctonia solani) | inhibition of growth at 300 ppm (Botrytis cinerea)

CCN(C)C=Nc1cc(Cl)cc(Nc2ccccc2F)c1C [Compound 165, N′-(5-chloro-3-((2-fluorophenyl)amino)-2-methylphenyl)-N-ethyl-N-methylformimidamide]
≥ 70%: inhibition of growth at 300 ppm (Pyricularia oryzae) | inhibition of growth at 300 ppm (Alternaria solani) | inhibition of growth at 300 ppm (Rhizoctonia solani) | inhibition of growth at 300 ppm [1]

CCN(C)C=Nc1cc(OC)cc(Nc2ccc(F)c(OC)c2)c1C [Compound 276, N-ethyl-N′-(3-((4-fluoro-3-methoxyphenyl)amino)-5-methoxy-2-methylphenyl)-N-methylformimidamide]
≥ 70%: inhibition of growth at 300 ppm (Pyricularia oryzae) | pest or weed control at 500 ppm (Phakopsora pachyrhizi) | inhibition of growth at 300 ppm (Alternaria solani) | inhibition of growth at 300 ppm (Rhizoctonia solani) | inhibition of growth at 300 ppm [1]

CCN(C)C=Nc1cc(C)cc(N(C)c2c(C)cccc2F)c1Cl [Compound 138, N′-(2-chloro-3-((2-fluoro-6-methylphenyl)(methyl)amino)-5-methylphenyl)-N-ethyl-N-methylformimidamide]
≥ 70%: inhibition of growth at 300 ppm (Pyricularia oryzae) | inhibition of growth at 300 ppm (Alternaria solani) | inhibition of growth at 300 ppm (Rhizoctonia solani) | inhibition of growth at 300 ppm [1]

CCN(C)C=Nc1cc(F)cc(N(C)c2ccc(F)cc2F)c1C [Compound 80, N′-(3-((2,4-difluorophenyl)(methyl)amino)-5-fluoro-2-methylphenyl)-N-ethyl-N-methylformimidamide]
≥ 70%: inhibition of growth at 300 ppm (Pyricularia oryzae) | pest or weed control at 500 ppm (Phakopsora pachyrhizi) | inhibition of growth at 300 ppm (Alternaria solani) | inhibition of growth at 300 ppm (Rhizoctonia solani) | inhibition of growth at 300 ppm (Botrytis cinerea)

CCN(C)C=Nc1cc(OC)cc(Nc2ccccc2OC(F)(F)F)c1C [Compound 300, N-ethyl-N′-(5-methoxy-2-methyl-3-((2-(trifluoromethoxy)phenyl)amino)phenyl)-N-methylformimidamide]
≥ 70%: inhibition of growth at 300 ppm (Pyricularia oryzae) | pest or weed control at 500 ppm (Phakopsora pachyrhizi) | inhibition of growth at 300 ppm (Alternaria solani) | inhibition of growth at 300 ppm (Rhizoctonia solani) | inhibition of growth at 300 ppm [1]

CCN(C)C=Nc1cc(F)cc(N(C)c2cccc(C(F)(F)F)n2)c1C [Compound 291, N-ethyl-N′-(5-fluoro-2-methyl-3-(methyl(6-(trifluoromethyl)pyridin-2-yl)amino)phenyl)-N-methylformimidamide]
≥ 70%: inhibition of growth at 300 ppm (Pyricularia oryzae) | inhibition of growth at 300 ppm (Alternaria solani) | inhibition of growth at 300 ppm [1]

CCc1cccc(Nc2cc(Cl)cc(N=CN(C)CC)c2C)n1 [Compound 243, N′-(5-chloro-3-((6-ethylpyridin-2-yl)amino)-2-methylphenyl)-N-ethyl-N-methylformimidamide]
≥ 70%: inhibition of growth at 300 ppm (Pyricularia oryzae) | inhibition of growth at 300 ppm (Alternaria solani) | inhibition of growth at 300 ppm (Rhizoctonia solani) | inhibition of growth at 300 ppm [1]

CCN(C)C=Nc1cc(C)cc(Nc2cccc(OC)c2)c1Cl [Compound 42, N′-(2-chloro-3-((3-methoxyphenyl)amino)-5-methylphenyl)-N-ethyl-N-methylformimidamide]
≥ 70%: inhibition of growth at 300 ppm (Pyricularia oryzae) | pest or weed control at 500 ppm (Phakopsora pachyrhizi) | inhibition of growth at 300 ppm (Alternaria solani) | inhibition of growth at 300 ppm (Rhizoctonia solani) | inhibition of growth at 300 ppm (Botrytis cinerea)

CCN(C)C=Nc1cc(Cl)cc(Nc2cccc(F)c2)c1C [Compound 166, N′-(5-chloro-3-((3-fluorophenyl)amino)-2-methylphenyl)-N-ethyl-N-methylformimidamide]
≥ 70%: inhibition of growth at 300 ppm (Pyricularia oryzae) | inhibition of growth at 300 ppm (Alternaria solani) | inhibition of growth at 300 ppm [1] | inhibition of growth at 300 ppm (Botrytis cinerea)

CCN(C)C=Nc1cc(F)cc(Cc2ccc(C#N)cc2)c1C [Compound 202, N′-(3-(4-cyanobenzyl)-5-fluoro-2-methylphenyl)-N-ethyl-N-methylformimidamide]
≥ 70%: inhibition of growth at 300 ppm (Pyricularia oryzae) | pest or weed control at 500 ppm (Phakopsora pachyrhizi) | inhibition of growth at 300 ppm (Alternaria solani) | inhibition of growth at 300 ppm (Rhizoctonia solani) | inhibition of growth at 300 ppm (Botrytis cinerea)

CCN(C)C=Nc1cc(C)cc(Nc2ccccc2F)c1C [Compound 6, N-ethyl-N′-(3-((2-fluorophenyl)amino)-2,5-dimethylphenyl)-N-methylformimidamide]
≥ 70%: inhibition of growth at 300 ppm (Pyricularia oryzae) | inhibition of growth at 300 ppm (Alternaria solani) | inhibition of growth at 300 ppm (Rhizoctonia solani) | inhibition of growth at 300 ppm [1]

CCN(C)C=Nc1cc(F)cc(Cc2cc(F)ccc2C)c1C [Compound 231, N-ethyl-N′-(5-fluoro-3-(5-fluoro-2-methylbenzyl)-2-methylphenyl)-N-methylformimidamide]
≥ 70%: inhibition of growth at 300 ppm (Pyricularia oryzae) | pest or weed control at 500 ppm (Phakopsora pachyrhizi) | inhibition of growth at 300 ppm (Alternaria solani) | inhibition of growth at 300 ppm (Rhizoctonia solani) | inhibition of growth at 300 ppm (Botrytis cinerea)

CCN(C)C=Nc1cc(F)cc(Cc2ccc(Br)c(C)c2)c1C [Compound 232, N′-(3-(4-bromo-3-methylbenzyl)-5-fluoro-2-methylphenyl)-N-ethyl-N-methylformimidamide]
≥ 70%: inhibition of growth at 300 ppm (Pyricularia oryzae) | pest or weed control at 500 ppm (Phakopsora pachyrhizi) | inhibition of growth at 300 ppm (Alternaria solani) | inhibition of growth at 300 ppm (Rhizoctonia solani) | inhibition of growth at 300 ppm (Botrytis cinerea)
